According to US6350476B1, “Herbal chinese joint complex” (Shanxi Zhengzhon Pharmaceutical Co., Ltd., priority 2000, dated 2002):

Legend:
[1] = system: carrageenin-induced edematous footpad in mice; experiment: Animal Study 3: carrageenin-induced edematous footpad; assay type: in vivo; details: 0.15 g/kg gastrogavage once a day for 8 days
Experimental: (§1) The compositions used in these experiments were prepared by the Pharmaceutical Preparation Room of Taiyuan Rheumatoid Arthritis Hospital using the procedures outlined above. Distilled water was added to prepare a suspension of the density required for the tests.
(§2) Aspirin (99.6%) was manufactured by Nanjing Pharmacy. A 10% of gum acacia solution was added to prepare a suspension of the density required for the test.
(§3) Distilled water was used for the control groups.
This test was conducted according to the procedure established by Xu-Shu-Yun, Methodology of the Pharmacologic Experiments, The People's Public Health Publishing House, 717 (1991). Male mice were randomly assigned to one of four groups of ten mice each, each group weighing 22.5±2.1 g. Each group of mice was fed either water (control), aspirin (0.15 g/kg of body weight), or the composition disclosed in U.S. Pat. No. 5,908,628 (either 1.5 g or 3.0 g/kg of body weight) by means of gastrogavage, once a day for 8 days. On the eighth day, 1 hour after the gastrogavage, 0.1 ml of a 1.0% carrageenin solution was hypodermically injected into the right ankle joint. Using a volumometer, the volumes of the paw and ankle joints were measured 0.5, 1, 2, 3 and 4 hours after inflammation and the values were used to calculate a swelling value.

[2] = system: increased capillary permeability induced by I.P. 0.7 acetic acid in mice; experiment: Animal Study 5: capillary permeability induced by glacial acetic acid; assay type: in vivo; details: 0.15 g/kg gastrogavage, 20 minutes after injection
Experimental: as §1, §2, §3
This test was conducted according to the procedure established by Chen Qi, The People's Public Health House, 303 (1993). Mice were randomly assigned to one of 4 groups, each group having a total weight of 21.8±1.9 g and consisting of 5 male and 5 female mice each. Each group of mice was fed either water (control), aspirin (0.15 g/kg of body weight), or the composition disclosed in U.S. Pat. No. 5,908,628 (either 1.5 g or 3.0 g/kg of body weight) by means of gastrogavage. One hour after the gastrogavage, a solution consisting of 0.5% Evans blue and (I.P.) 0.7% glacial acetic acid 0.1 m/10 g (body weight) was hypodermically injected into the mice. I.P. densitometry values were collected 20 minutes after the injection.

[3] = system: hyperplasia of connective tissues (granulomatosis); experiment: Animal Study 6: granulomatosis induced by Cotton Pallet Method; assay type: in vivo; details: rats; 0.1 g/kg gastrogavage once daily for 8 days
Experimental: as §1, §2, §3
This test was conducted according to the procedure established by the Medication Dept. of the Public Health Ministry (Collection of Guiding Principles on Western Medicine's Pre-Clinical Research, 271 (1993)). Rats were randomly assigned to one of 4 groups, each group consisting of 8 rats with a total weight 157.8±9.0 g. The rats in each group were anesthetized, tiny incisions were cut on the left and right groins, and 10 mg of sterilized cotton was placed inside each cut. […] On the day following the last gastrogavage, the cotton and any granuloma deposits thereon were removed from the incisions, dried at a temperature of 60° C. for 12 hours, after which they were individually weighed. The weight of the granuloma deposits was calculated by subtracting […] (i.e., 10 mg). […] The Inhibitory Ratio is calculated as follows: […]

[4] = system: inflammation of primary arthritis caused by injection of Freund's complete adjuvant (rat hind paw); experiment: Animal Study 2: primary arthritis caused by Freund's complete adjuvant, treatment one week after injection; assay type: in vivo; details: rats
Experimental: as §1, §2, §3
Male rats were randomly divided into four groups of ten rats each, with the total weight of each group being 172.5±8.0 g. The perimeters of the left and right rat hind paws were measured. 0.1 ml of Freund's complete adjuvant was intradermally injected into each rat's right hind paw to induce inflammation. One week after injection of Freund's complete adjuvant, each group of rats was fed either water (control), aspirin (0.15 g/kg of body weight), or the composition disclosed in U.S. Pat. No. 5,908,628 (either 1.5 g or 3.0 g/kg of body weight) by means of gastrogavage. The hind paws were observed and measured 1, 4 and 7 days after receiving treatments of either water, aspirin or the composition disclosed in U.S. Pat. No. 5,908,628. Results of the treatments were determined by measuring the degree of swelling of the injected versus non-injected hind paws, changes in body weight, the number of tubercles, and an overall visual score of the difference between the injected and non-injected paws. The visual score included observations on erythema of the ears and the swelling of the hind paws, ankle joints, and paw joints.

[5] = system: fever caused by yeast injection; experiment: Animal Study 7: anti-pyretic action on pyrexial rat caused by injection of fresh yeast; assay type: in vivo; details: rats, 0.15 g/kg gastrogavage
Experimental: as §1, §2, §3
This test was conducted according to the procedure established by Chen Qi, The People's Public Health House, 271 (1993).
The rats were randomly divided into 4 groups, each group weighing 210.0±10.9 g and consisting of 5 male and 5 female rats each. Rats were maintained in the test environmental conditions for 3 days during which their anal temperatures were recorded twice daily. On the fourth day the anal temperature was measured every half hour. Next, a 15% solution of fresh yeast suspension (2 ml/100 g) was injected into the back of each rat. Anal temperature was measured 4 hours later. The rats whose temperatures rose above 1° C. were divided into 4 groups, each group consisting of 10 rats. Each group of rats was fed either water (control), aspirin (0.15 g/kg of body weight), or the composition disclosed in U.S. Pat. No. 5,908,628 (either 1.5 g or 3.0 g/kg of body weight) by means of gastrogavage. Anal temperatures were determined 1, 2, 3 and 4 hours after the gastrogavage.

[6] = system: inflammation of primary arthritis caused by injection of Freund's complete adjuvant (rat hind paw); experiment: Animal Study 1: primary arthritis caused by Freund's complete adjuvant, treatment before injection; assay type: in vivo; details: rats, 0.15 g/kg gastrogavage once a day for 3 days
Experimental: as §1, §2, §3
Male rats were randomly divided into four groups of ten rats each, with the total weight of each group being 172.5±8.0 g. The perimeters of the rat hind paws were measured. Each group of rats was fed either water (control), aspirin (0.15 g/kg of body weight), or the composition disclosed in U.S. Pat. No. 5,908,628 (either 1.5 g or 3.0 g/kg of body weight) by means of gastrogavage, once a day for 3 days. On the third day, 1 hour after the gastrogavage, 0.1 ml of Freund's complete adjuvant was intradermally injected into each rat's right hind paw to induce inflammation. The perimeters of the left and right hind paws were measured 2, 4, 6, 24, 48 and 72 hours after inflammation.

[7] = system: writhing caused by injection of 0.5% acetic acid; experiment: Animal Study 8: writhing reaction caused by injection of 0.5% acetic acid; assay type: in vivo; details: mice, 0.2 g/kg gastrogavage
Experimental: as §1, §2, §3
This test measures the analgesic action of the composition disclosed in U.S. Pat. No. 5,908,628 on writhing caused by injection of 0.5% acetic acid according to the procedure established by Chen Qi. Methodology of Chinese Herbs Pharmacologic Research, The People's Public Health Publishing House, 378 (1993).
The mice are randomly divided into 4 groups, each of which consists of 10 male and 10 female mice, with the total weight of each group being 20.9±1.1 g. […] Pat. No. […] One hour after the gastrogavage, a solution of (I.P.) 0.5% acetic acid (0.2 ml/20 g) was injected into the mice. The number of writhing reactions was counted during the 30 minutes immediately following the injection.

[8] = as little as; cited from earlier work

## CC(=O)Oc1ccccc1C(=O)O [Aspirin, acetylsalicylic acid]
[1]; 0.5 hr
  Degree of swelling of Hind Paw, 0.5 hr after injection: 0.08 ± 0.03 mL
[1]; 1 hr
  Degree of swelling of Hind Paw, 1 hr after injection: 0.12 ± 0.03 mL
[1]; 2 hr
  Degree of swelling of Hind Paw, 2 hr after injection: 0.03 ± 0.02 mL
[1]; 3 hr
  Degree of swelling of Hind Paw, 3 hr after injection: 0.01 ± 0.01 mL
[1]; 4 hr
  Degree of swelling of Hind Paw, 4 hr after injection: 0.01 ± 0.0 mL
[2]
  Evans blue (densitometry): 0.231 ± 0.07
[3]
  Dry Weight of the granuloma: 10.1 ± 1.6 mg/100 g
  Inhibitory rate %: 17.89%
[4]; 0.15 g/kg
  No. of Tubercles: 1
  Visual Score: 1
[4]; 0.15 g/kg gastrogavage one week after adjuvant injection
  Swelling: 0.0 ± 0.57 mm
[5]; 1 hr after the gastrogavage
  Changes in Body Temperature after injection with yeast, 1 hr: 37.9 ± 0.9 °C
[5]; 2 hr after the gastrogavage
  Changes in Body Temperature after injection with yeast, 2 hr: 37.6 ± 0.9 °C
[5]; 3 hr after the gastrogavage
  Changes in Body Temperature after injection with yeast, 3 hr: 37.8 ± 1.0 °C
[5]; 4 hr after the gastrogavage
  Changes in Body Temperature after injection with yeast, 4 hr: 38.3 ± 0.7 °C
[6]; 2 h after inflammation
  Swelling Measurement, 2 h: 2.40 ± 1.08 mm
[6]; 4 h after inflammation
  Swelling Measurement, 4 h: 4.40 ± 1.57 mm
[6]; 6 h after inflammation
  Swelling Measurement, 6 h: 5.30 ± 1.34 mm
[6]; 24 h after inflammation
  Swelling Measurement, 24 h: 3.20 ± 0.92 mm
[6]; 48 h after inflammation
  Swelling Measurement, 48 h: 5.01 ± 1.92 mm
[6]; 72 h after inflammation
  Swelling Measurement, 72 h: 5.80 ± 1.75 mm
[7]
  Analgesic Rate (%): 63.31%
[7]; 30 minutes following acetic acid injection
  Writhing Quantity: 24.4 ± 10.0

## COc1cc2c(c(OC)c1OC)-c1ccc(OC)c(=O)cc1[C@@H](NC(C)=O)CC2 [colchicine]
[8]
  smallest amount found to be fatal: 7 mg
